# Laboratory results as given in US20260365670A1, “EGFR INHIBITORS AND USES THEREOF” (DIZAL (JIANGSU) PHARMACEUTICAL CO., LTD., priority 2022, published 2026).
# Where two headings read alike, the source gives them in different places.
# Assays:
# [1] = molecular target: T1, EGFR[T790M/C797S/d746-750] (Homo sapiens, UniProt P00533, C797S/DEL746-750/T790M); experiment: Inhibition of EGFR[T790M/C797S/d746-750] biochemical enzymatic activity (HTRF); conditions: EGFR[T790M/C797S/d746-750], 1 mM ATP, 1 h at room temperature, read-out: IC50 @T790M - C797S - Del19
# T1 construct: purchased Carna Bio
# Summary of the method: (§1)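 Read-out is the HTRF 665/615 nm ratio (excitation 320 nm), taken as proportional to kinase activity after a 1 h room-temperature reaction with 1 mM ATP and 1 μM biotinylated TK substrate. IC50 values derive from four-parameter logistic fitting.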
# [2] = molecular target: T2, EGFR L858R (Homo sapiens, UniProt P00533, L858R); experiment: Inhibition of EGFR L858R biochemical enzymatic activity (HTRF); conditions: 1 mM ATP, 1 h at room temperature, read-out: IC50 @L858R
# T2 construct: purchased Carna Bio
# Summary of the method: as §1
# [3] = test system: Ba/F3 cells expressing EGFR mutations; experiment: Cell proliferation assay, Ba/F3 cells expressing EGFR mutations (CellTiter-Glo, 72 hours); type: cell-based; conditions: Mus musculus, BaF3, 72 h
# Summary of the method: (§2)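 Cells are exposed to graded compound concentrations after overnight plating, using 500 PC-9 or 5000 Ba/F3 per well. Baseline-subtracted viability is compared with vehicle to give percent proliferation, then GI50.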
# [4] = molecular target: T3, EGFR L858R/T790M (Homo sapiens, UniProt P00533, L858R/T790M); experiment: Inhibition of EGFR L858R/T790M biochemical enzymatic activity (HTRF); conditions: EGFR L858R/T790M, 1 mM ATP, 1 h at room temperature, read-out: IC50 @L858R-T790M
# T3 construct: purchased Carna Bio
# Summary of the method: as §1
# [5] = molecular target: T4, EGFR[T790M/C797S/L858R] (Homo sapiens, UniProt P00533, C797S/L858R/T790M); experiment: Inhibition of EGFR[T790M/C797S/L858R] biochemical enzymatic activity (HTRF); conditions: EGFR[T790M/C797S/L858R], 1 mM ATP, 1 h at room temperature, read-out: IC50 @T790M- C797S - L858R
# T4 construct: purchased Carna Bio
# Summary of the method: as §1
# [6] = molecular target: T5, EGFR (d746-750 C797S) (Homo sapiens, UniProt P00533, C797S/DEL746-750); experiment: Inhibition of EGFR (d746-750 C797S) biochemical enzymatic activity (HTRF); conditions: EGFR (d746-750 C797S), 1 mM ATP, 1 h at room temperature, read-out: IC50 @Del19-C797S
# T5 construct: purchased signalchem
# Summary of the method: as §1
# [7] = test system: A-431; experiment: Cell proliferation assay, A-431 cells (GI50, Table 6); type: cell-based; conditions: Homo sapiens, A-431, A-431 cells
# [8] = molecular target: T6, EGFR wild type (Homo sapiens, UniProt P00533); experiment: Inhibition of EGFR wild type biochemical enzymatic activity (HTRF); conditions: EGFR wild type, 1 mM ATP, 1 h at room temperature, read-out: IC50 @WT
# T6 construct: purchased Carna Bio
# Summary of the method: as §1
# [9] = molecular target: T7, EGFR Exon19Del/T790M (Homo sapiens, UniProt P00533, DEL746-750/T790M); experiment: Inhibition of EGFR Exon19Del/T790M biochemical enzymatic activity (HTRF); conditions: EGFR Exon19Del/T790M, 1 mM ATP, 1 h at room temperature, read-out: IC50 @Del19-T790M
# T7 construct: purchased Carna Bio
# Summary of the method: as §1
# [10] = test system: PC-9; experiment: Cell proliferation assay, PC-9 cells (CellTiter-Glo, 72 hours); type: cell-based; conditions: Homo sapiens, PC-9, 72 h, PC9 cells, read-out: GI50 PC9
# Summary of the method: as §2
# [11] = molecular target: T8, EGFR (C797S L858R) (Homo sapiens, UniProt P00533, C797S/L858R); experiment: Inhibition of EGFR (C797S L858R) biochemical enzymatic activity (HTRF); conditions: EGFR (C797S L858R), 1 mM ATP, 1 h at room temperature, read-out: IC50 @L858-C797S
# T8 construct: purchased signalchem
# Summary of the method: as §1
# [12] = molecular target: T9, EGFR Exon19Del (Homo sapiens, UniProt P00533, DEL746-750); experiment: Inhibition of EGFR Exon19Del biochemical enzymatic activity (HTRF); conditions: EGFR Exon19Del, 1 mM ATP, 1 h at room temperature, read-out: IC50 @Del19
# T9 construct: purchased Carna Bio
# Summary of the method: as §1
# [13] = BaF3 cells, EGFR DEL19 - C797S, read-out: GI50 DEL19 - C797S/BaF3
# [14] = BaF3 cells, EGFR DEL19 - T790-C797S, read-out: GI50 DEL19 - T790-C797S/BaF3
# [15] = BaF3 cells, EGFR L858R - C797S, read-out: GI50 L858R - C797S/BaF3
# [16] = BaF3 cells, EGFR L858R - T790-C797S, read-out: GI50 L858R - T790-C797S/BaF3
# [17] = BaF3 cells, EGFR L858R - T790M, read-out: GI50 L858R - T790M/BaF3
# [18] = BaF3 cells, EGFR L858R, read-out: GI50 L858R/BaF3
# [19] = EGFR DEL19 - T790M, read-out: GI50 DEL19 - T790M
# T3 sequence (P00533 25-1210 T790M/L858R): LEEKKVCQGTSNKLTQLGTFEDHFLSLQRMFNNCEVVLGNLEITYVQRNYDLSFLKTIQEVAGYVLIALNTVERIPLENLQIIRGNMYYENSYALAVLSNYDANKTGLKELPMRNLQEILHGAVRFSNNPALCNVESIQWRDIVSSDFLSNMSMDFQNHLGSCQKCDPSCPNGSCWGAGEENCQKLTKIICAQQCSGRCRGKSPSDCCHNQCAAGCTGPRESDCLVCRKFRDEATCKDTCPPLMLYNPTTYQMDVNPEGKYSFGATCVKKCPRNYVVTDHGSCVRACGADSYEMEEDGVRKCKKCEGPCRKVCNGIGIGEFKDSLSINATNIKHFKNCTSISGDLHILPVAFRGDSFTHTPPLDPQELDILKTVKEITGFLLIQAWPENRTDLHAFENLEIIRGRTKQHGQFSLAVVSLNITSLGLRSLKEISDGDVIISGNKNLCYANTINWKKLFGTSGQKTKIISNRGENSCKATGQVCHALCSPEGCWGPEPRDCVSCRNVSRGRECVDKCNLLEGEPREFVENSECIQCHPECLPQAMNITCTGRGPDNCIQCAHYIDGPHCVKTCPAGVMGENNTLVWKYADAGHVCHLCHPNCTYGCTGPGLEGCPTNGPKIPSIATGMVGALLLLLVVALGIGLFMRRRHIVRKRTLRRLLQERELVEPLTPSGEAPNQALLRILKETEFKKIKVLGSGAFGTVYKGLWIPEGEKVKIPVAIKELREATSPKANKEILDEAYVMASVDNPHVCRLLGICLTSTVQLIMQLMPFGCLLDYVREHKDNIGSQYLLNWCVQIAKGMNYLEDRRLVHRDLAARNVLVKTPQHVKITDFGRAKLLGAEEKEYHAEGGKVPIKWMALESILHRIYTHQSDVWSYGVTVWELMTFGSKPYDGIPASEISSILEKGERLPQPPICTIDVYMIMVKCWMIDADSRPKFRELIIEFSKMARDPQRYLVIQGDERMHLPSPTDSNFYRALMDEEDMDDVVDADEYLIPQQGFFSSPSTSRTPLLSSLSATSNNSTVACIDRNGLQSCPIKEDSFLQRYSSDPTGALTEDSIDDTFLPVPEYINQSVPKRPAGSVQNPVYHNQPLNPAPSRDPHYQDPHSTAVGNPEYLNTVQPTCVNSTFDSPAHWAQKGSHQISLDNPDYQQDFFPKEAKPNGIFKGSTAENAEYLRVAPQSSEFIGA
# T7 sequence (P00533 with tags, fused parts or gaps DEL746-750/T790M limits assumed): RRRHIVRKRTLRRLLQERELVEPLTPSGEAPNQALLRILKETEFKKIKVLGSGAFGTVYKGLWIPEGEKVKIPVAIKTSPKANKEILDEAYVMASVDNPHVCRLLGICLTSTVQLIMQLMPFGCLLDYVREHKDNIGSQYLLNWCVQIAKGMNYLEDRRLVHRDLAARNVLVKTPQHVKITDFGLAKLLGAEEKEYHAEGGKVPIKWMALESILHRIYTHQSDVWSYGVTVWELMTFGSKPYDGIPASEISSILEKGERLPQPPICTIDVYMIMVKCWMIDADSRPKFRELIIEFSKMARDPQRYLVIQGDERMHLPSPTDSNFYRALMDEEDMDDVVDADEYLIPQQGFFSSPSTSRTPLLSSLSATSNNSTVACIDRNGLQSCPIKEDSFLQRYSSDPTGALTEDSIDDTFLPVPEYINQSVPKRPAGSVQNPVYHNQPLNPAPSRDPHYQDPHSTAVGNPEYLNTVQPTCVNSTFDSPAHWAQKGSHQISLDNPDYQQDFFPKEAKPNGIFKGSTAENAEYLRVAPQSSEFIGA
# T9 sequence (P00533 with tags, fused parts or gaps DEL746-750 limits assumed): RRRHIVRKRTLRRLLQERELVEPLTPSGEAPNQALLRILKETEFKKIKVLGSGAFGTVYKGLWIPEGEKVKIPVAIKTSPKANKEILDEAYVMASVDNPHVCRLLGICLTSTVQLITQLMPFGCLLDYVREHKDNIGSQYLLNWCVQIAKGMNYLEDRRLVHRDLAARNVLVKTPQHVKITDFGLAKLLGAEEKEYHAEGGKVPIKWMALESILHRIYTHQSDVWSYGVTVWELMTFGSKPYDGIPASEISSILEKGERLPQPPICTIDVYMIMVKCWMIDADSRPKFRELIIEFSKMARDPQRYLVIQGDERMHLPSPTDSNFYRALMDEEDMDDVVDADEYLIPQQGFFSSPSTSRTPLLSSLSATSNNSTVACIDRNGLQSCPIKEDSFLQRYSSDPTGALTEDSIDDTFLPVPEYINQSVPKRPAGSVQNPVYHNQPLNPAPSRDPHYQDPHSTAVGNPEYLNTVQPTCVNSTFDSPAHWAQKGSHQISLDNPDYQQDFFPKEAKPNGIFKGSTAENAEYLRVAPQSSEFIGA
# T5 sequence (P00533 with tags, fused parts or gaps DEL746-750/C797S limits assumed): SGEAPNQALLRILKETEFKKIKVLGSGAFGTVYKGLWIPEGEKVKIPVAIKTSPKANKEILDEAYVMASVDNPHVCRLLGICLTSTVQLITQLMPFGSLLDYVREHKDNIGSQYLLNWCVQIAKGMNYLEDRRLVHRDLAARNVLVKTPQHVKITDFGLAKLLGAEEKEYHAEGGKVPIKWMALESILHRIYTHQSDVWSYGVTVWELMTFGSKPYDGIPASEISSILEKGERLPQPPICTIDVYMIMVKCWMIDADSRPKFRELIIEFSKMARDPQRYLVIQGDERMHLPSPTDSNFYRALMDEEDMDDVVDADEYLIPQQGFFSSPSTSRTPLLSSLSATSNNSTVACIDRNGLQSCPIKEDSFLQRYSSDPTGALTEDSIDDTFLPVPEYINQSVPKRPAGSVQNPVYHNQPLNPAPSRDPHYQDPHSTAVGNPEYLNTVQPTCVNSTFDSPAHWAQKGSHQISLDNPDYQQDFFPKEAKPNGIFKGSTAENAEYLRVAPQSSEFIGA
# T8 sequence (P00533 25-1210 C797S/L858R): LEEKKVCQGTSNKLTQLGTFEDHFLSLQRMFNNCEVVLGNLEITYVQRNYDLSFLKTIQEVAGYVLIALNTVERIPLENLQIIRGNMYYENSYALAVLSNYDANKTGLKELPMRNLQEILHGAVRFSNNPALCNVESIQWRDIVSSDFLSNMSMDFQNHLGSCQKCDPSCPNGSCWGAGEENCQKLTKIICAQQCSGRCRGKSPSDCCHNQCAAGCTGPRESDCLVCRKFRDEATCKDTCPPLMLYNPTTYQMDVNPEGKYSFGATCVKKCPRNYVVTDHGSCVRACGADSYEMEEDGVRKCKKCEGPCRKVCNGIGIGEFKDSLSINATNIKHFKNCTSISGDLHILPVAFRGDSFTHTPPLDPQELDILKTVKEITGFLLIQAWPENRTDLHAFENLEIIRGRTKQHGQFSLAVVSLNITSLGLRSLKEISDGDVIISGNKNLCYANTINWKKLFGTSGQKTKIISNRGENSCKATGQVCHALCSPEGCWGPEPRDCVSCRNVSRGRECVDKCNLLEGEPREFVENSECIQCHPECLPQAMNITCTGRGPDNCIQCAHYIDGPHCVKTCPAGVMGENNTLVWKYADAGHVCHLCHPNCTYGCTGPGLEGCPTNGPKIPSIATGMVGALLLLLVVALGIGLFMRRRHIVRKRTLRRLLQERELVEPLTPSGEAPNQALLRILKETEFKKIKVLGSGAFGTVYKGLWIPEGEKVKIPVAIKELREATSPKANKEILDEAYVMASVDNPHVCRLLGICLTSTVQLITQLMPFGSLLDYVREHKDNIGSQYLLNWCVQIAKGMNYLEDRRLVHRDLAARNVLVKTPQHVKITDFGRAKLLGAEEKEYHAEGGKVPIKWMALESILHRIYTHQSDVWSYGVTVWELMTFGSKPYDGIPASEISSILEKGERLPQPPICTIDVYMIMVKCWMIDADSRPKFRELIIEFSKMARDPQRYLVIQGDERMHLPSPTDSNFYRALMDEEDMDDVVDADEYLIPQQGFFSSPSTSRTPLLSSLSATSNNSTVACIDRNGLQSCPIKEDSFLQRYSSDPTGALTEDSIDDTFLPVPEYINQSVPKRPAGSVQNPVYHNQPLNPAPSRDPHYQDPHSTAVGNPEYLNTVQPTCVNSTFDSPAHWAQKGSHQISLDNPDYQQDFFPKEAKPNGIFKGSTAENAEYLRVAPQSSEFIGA
# T1 sequence (P00533 with tags, fused parts or gaps DEL746-750/T790M/C797S limits assumed): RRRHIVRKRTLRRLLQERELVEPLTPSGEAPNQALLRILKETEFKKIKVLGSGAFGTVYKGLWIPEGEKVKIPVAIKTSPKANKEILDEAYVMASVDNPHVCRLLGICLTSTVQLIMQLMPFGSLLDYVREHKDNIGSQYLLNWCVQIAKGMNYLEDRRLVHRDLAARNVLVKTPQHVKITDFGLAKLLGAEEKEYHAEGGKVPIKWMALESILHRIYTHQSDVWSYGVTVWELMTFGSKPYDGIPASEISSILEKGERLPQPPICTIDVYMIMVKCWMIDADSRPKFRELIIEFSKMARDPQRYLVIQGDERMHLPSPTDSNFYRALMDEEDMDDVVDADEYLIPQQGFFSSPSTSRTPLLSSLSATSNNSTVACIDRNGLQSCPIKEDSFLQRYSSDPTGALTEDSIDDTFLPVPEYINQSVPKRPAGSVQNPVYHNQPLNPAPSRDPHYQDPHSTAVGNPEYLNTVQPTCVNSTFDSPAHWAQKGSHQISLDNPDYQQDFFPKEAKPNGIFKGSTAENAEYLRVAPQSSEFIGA
IC50 [1] [nM],IC50 [2] [nM],"GI50 [3, 13] [nM]","GI50 [3, 14] [nM]","GI50 [3, 15] [nM]","GI50 [3, 16] [nM]","GI50 [3, 17] [nM]","GI50 [3, 18] [nM]","GI50 [3, 19] [nM]",IC50 [4] [nM],IC50 [5] [nM],IC50 [6] [nM],GI50 [7] [nM],IC50 [8] [nM],IC50 [9] [nM],GI50 [10] [nM],IC50 [11] [nM],IC50 [12] [nM],Compound
3.7,734,27,8,234,15,29,200,10,7.6,2.9,10,3420,> 5000,5.8,186,159,24,Cc1cc2cc(n1)-c1cnn(C)c1OCCN1CC3CCC(CC3)(C1)n1c(nc3ccc(N4CCN(C5CC5)CC4)cc31)NC2=O [Example B36]
3.9,194,12,5,73,9,28,74,5,13,5.6,13,5040,> 5000,9,106,99,19,Cc1cc2cc(n1)-c1cnn(C)c1OCCN1CC3CCC(CC3)(C1)n1c(nc3ccc(N4CCC5(CN(C)C5)C4)cc31)NC2=O [Example B37]
3.3,282,24,8,101,4,18,167,7,7.7,4.2,9.4,7730,> 5000,6.6,178,126,20,Cc1cc2cc(n1)-c1cnn(C)c1OCCN1CC3CCC(CC3)(C1)n1c(nc3ccc(N4CCN(C(C)C)CC4)cc31)NC2=O [Example B39]
